Test results published in PubChem BioAssay AID2060603 (Molecular Pharmacology Branch, DTP, NCI, 2025).
pIC50: −log10 of the molar value.

System: 422866-222-R5-J1-PDC spheroid viability
Experiment: Anticancer human tumor 422866-222-R5-J1-PDC patient-derived pancreatic adenocarcinoma cell line growth inhibition [CLK]
Settings: spheroids with HUVEC and MSC; for pIC50: curve of first compound; for viability, T/C: stronger effect = lower value
How it was run: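 Patient-derived tumor cells grown as complex spheroids with HUVEC endothelial cells and mesenchymal stem cells, treated with drug combinations. Concentrations descend in half-log steps from near clinical Cmax, or from 10 microM if Cmax unknown.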

[1] = second compound 0.0316 µM, first compound 0.0316 µM
[2] = second compound 0.0316 µM, first compound 0.1 µM
[3] = second compound 0.0316 µM, first compound 0.316 µM
[4] = second compound 0.0316 µM, first compound 1 µM
[5] = second compound 0.1 µM, first compound 0.0316 µM
[6] = second compound 0.1 µM, first compound 0.1 µM
[7] = second compound 0.1 µM, first compound 0.316 µM
[8] = second compound 0.1 µM, first compound 1 µM
[9] = second compound 0.316 µM, first compound 0.0316 µM
[10] = second compound 0.316 µM, first compound 0.1 µM
[11] = second compound 0.316 µM, first compound 0.316 µM
[12] = second compound 0.316 µM, first compound 1 µM
[13] = second compound 1 µM, first compound 0.0316 µM
[14] = second compound 1 µM, first compound 0.1 µM
[15] = second compound 1 µM, first compound 0.316 µM
[16] = second compound 1 µM, first compound 1 µM
[17] = second compound 3.16 µM, first compound 0.0316 µM
[18] = second compound 3.16 µM, first compound 0.1 µM
[19] = second compound 3.16 µM, first compound 0.316 µM
[20] = second compound 3.16 µM, first compound 1 µM
[21] = second compound 10 µM, first compound 0.0316 µM
[22] = second compound 10 µM, first compound 0.1 µM
[23] = second compound 10 µM, first compound 0.316 µM
[24] = second compound 10 µM, first compound 1 µM
[25] = second compound 0.0316 µM, first compound 3.16 µM
[26] = second compound 0.0316 µM, first compound 10 µM
[27] = second compound 0.1 µM, first compound 3.16 µM
[28] = second compound 0.1 µM, first compound 10 µM
[29] = second compound 0.316 µM, first compound 3.16 µM
[30] = second compound 0.316 µM, first compound 10 µM
[31] = second compound 1 µM, first compound 3.16 µM
[32] = second compound 1 µM, first compound 10 µM
[33] = second compound 3.16 µM, first compound 3.16 µM
[34] = second compound 3.16 µM, first compound 10 µM
[35] = second compound 10 µM, first compound 3.16 µM
[36] = second compound 10 µM, first compound 10 µM
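Further: spheroids exposed to agents for seven days before readout.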

In the case of CCc1c2c(nc3ccc(O)cc13)-c1cc3c(c(=O)n1C2)COC(=O)[C@]3(O)CC + CN1CCN(c2cc(C(=O)Nc3cc4cc(-c5cnn(C)c5)ccc4cn3)ccn2)CC1, the pIC50 (second compound 0.0316 µM) was over 8.50, the pIC50 (second compound 0.1 µM) was 8.35 and the pIC50 (second compound 0.316 µM) was over 8.50. It also gave a pIC50 (second compound 1 µM) of over 8.50, a pIC50 (second compound 3.16 µM) of over 8.50 and a pIC50 (second compound 10 µM) of over 8.50. For the same compound, the viability, T/C (second compound 0.0316 µM, first compound 0.00316 µM) was 49.4%, the viability, T/C (second compound 0.0316 µM, first compound 0.01 µM) was 41.2% and the viability, T/C [1] was 37.6%. For the same compound, the viability, T/C [2] was 37.1%, the viability, T/C [3] was 27.9% and the viability, T/C [4] was 20.3%. The viability, T/C (second compound 0.1 µM, first compound 0.00316 µM) was 54%, the viability, T/C (second compound 0.1 µM, first compound 0.01 µM) was 42.3% and the viability, T/C [5] was 34.8%. The viability, T/C [6] was 40%, the viability, T/C [7] was 24.7% and the viability, T/C [8] was 24.3%. For the same compound, the viability, T/C (second compound 0.316 µM, first compound 0.00316 µM) was 52.9%, the viability, T/C (second compound 0.316 µM, first compound 0.01 µM) was 44.1% and the viability, T/C [9] was 45.7%. The viability, T/C [10] was 31.9%, the viability, T/C [11] was 24.2% and the viability, T/C [12] was 25.2%. The viability, T/C (second compound 1 µM, first compound 0.00316 µM) was 12.3%, the viability, T/C (second compound 1 µM, first compound 0.01 µM) was 12.7% and the viability, T/C [13] was 12.4%. For the same compound, the viability, T/C [14] was 14.1%, the viability, T/C [15] was 30.5% and the viability, T/C [16] was 24.3%. For the same compound, the viability, T/C (second compound 3.16 µM, first compound 0.00316 µM) was 6.01%, the viability, T/C (second compound 3.16 µM, first compound 0.01 µM) was 8.18% and the viability, T/C [17] was 12.9%. It also gave a viability, T/C [18] of 19%, a viability, T/C [19] of 25.1% and a viability, T/C [20] of 31.6%. The viability, T/C (second compound 10 µM, first compound 0.00316 µM) was 1.14%, the viability, T/C (second compound 10 µM, first compound 0.01 µM) was 0.8% and the viability, T/C [21] was 2.73%. For the same compound, the viability, T/C [22] was 2.68%, the viability, T/C [23] was 4.83% and the viability, T/C [24] was 5.54%.

Nc1ccn(C2OC(CO)C(O)C2(F)F)c(=O)n1 (stereo unspecified) + CN1CCN(c2cc(C(=O)Nc3cc4cc(-c5cnn(C)c5)ccc4cn3)ccn2)CC1 showed a pIC50 (second compound 0.0316 µM) of 7.13, a pIC50 (second compound 0.1 µM) of 7.07 and a pIC50 (second compound 0.316 µM) of 6.81. For the same compound, the pIC50 (second compound 1 µM) was over 7.50, the pIC50 (second compound 3.16 µM) was over 7.50 and the pIC50 (second compound 10 µM) was over 7.50. It also gave a viability, T/C [1] of 62.9%, a viability, T/C [2] of 46.5% and a viability, T/C [3] of 37.8%. It also gave a viability, T/C [4] of 42%, a viability, T/C [25] of 40.3% and a viability, T/C [26] of 38.1%. For the same compound, the viability, T/C [5] was 74.4%, the viability, T/C [6] was 44.9% and the viability, T/C [7] was 57.2%. For the same compound, the viability, T/C [8] was 45.2%, the viability, T/C [27] was 38.7% and the viability, T/C [28] was 37.5%. It also gave a viability, T/C [9] of 66.9%, a viability, T/C [10] of 50.9% and a viability, T/C [11] of 46.9%. For the same compound, the viability, T/C [12] was 55.9%, the viability, T/C [29] was 45.6% and the viability, T/C [30] was 46%. The viability, T/C [13] was 25.9%, the viability, T/C [14] was 20.6% and the viability, T/C [15] was 21.3%. The viability, T/C [16] was 16.7%, the viability, T/C [31] was 19.1% and the viability, T/C [32] was 14.9%. For the same compound, the viability, T/C [17] was 8.63%, the viability, T/C [18] was 8.77% and the viability, T/C [19] was 10.5%. The viability, T/C [20] was 9.38%, the viability, T/C [33] was 10.2% and the viability, T/C [34] was 10.9%. It also gave a viability, T/C [21] of 1.24%, a viability, T/C [22] of 1.59% and a viability, T/C [23] of 1.16%. It also gave a viability, T/C [24] of 1.57%, a viability, T/C [35] of 4.23% and a viability, T/C [36] of 3.93%.

O=c1[nH]cc(F)c(=O)[nH]1 + CN1CCN(c2cc(C(=O)Nc3cc4cc(-c5cnn(C)c5)ccc4cn3)ccn2)CC1 was tested, and the pIC50 (second compound 0.0316 µM) was under 5.00, the pIC50 (second compound 0.1 µM) was under 5.00 and the pIC50 (second compound 0.316 µM) was under 5.00. It also gave a pIC50 (second compound 1 µM) of over 7.50, a pIC50 (second compound 3.16 µM) of over 7.50 and a pIC50 (second compound 10 µM) of over 7.50. It also gave a viability, T/C [1] of 116%, a viability, T/C [2] of 129% and a viability, T/C [3] of 114%. For the same compound, the viability, T/C [4] was 95.6%, the viability, T/C [25] was 86.9% and the viability, T/C [26] was 77.1%. For the same compound, the viability, T/C [5] was 125%, the viability, T/C [6] was 104% and the viability, T/C [7] was 108%. It also gave a viability, T/C [8] of 90.5%, a viability, T/C [27] of 84.7% and a viability, T/C [28] of 91%. The viability, T/C [9] was 90.4%, the viability, T/C [10] was 100% and the viability, T/C [11] was 91.9%. For the same compound, the viability, T/C [12] was 96.1%, the viability, T/C [29] was 80.7% and the viability, T/C [30] was 80.6%. For the same compound, the viability, T/C [13] was 24.2%, the viability, T/C [14] was 19.1% and the viability, T/C [15] was 25.6%. It also gave a viability, T/C [16] of 17.9%, a viability, T/C [31] of 23.7% and a viability, T/C [32] of 22.5%. The viability, T/C [17] was 8.44%, the viability, T/C [18] was 10.5% and the viability, T/C [19] was 9.21%. The viability, T/C [20] was 8.88%, the viability, T/C [33] was 10.5% and the viability, T/C [34] was 9.67%. For the same compound, the viability, T/C [21] was 1.68%, the viability, T/C [22] was 1.08% and the viability, T/C [23] was 0.97%. The viability, T/C [24] was 1.08%, the viability, T/C [35] was 3.1% and the viability, T/C [36] was 1.13%.
